Source: PubChem BioAssay (NCI)
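Growth conditions: 96-well plates. Treatment: test compound, 48 hours, 5 concentrations. Analysis: linear interpolation between bracketing concentrations; unreached endpoints set to highest concentration. TGI: total growth inhibition.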

Key:
Test in all cases: NCI-60 cell line screen, 48 h
U251 CNS = test system: U251 CNS
UO-31 renal = test system: UO-31 renal
786-0 renal = test system: 786-0 renal
OVCAR-4 ovarian = test system: OVCAR-4 ovarian
HOP-18 NSCLC = test system: HOP-18 NSCLC
UACC-257 melanoma = test system: UACC-257 melanoma
OVCAR-5 ovarian = test system: OVCAR-5 ovarian
SNB-75 CNS = test system: SNB-75 CNS
HCC-2998 colon = test system: HCC-2998 colon
SR leukemia = test system: SR leukemia
ACHN renal = test system: ACHN renal
A549 NSCLC = test system: A549 NSCLC
MOLT-4 leukemia = test system: MOLT-4 leukemia
HT29 colon = test system: HT29 colon
SF-539 CNS = test system: SF-539 CNS
HOP-92 NSCLC = test system: HOP-92 NSCLC
CCRF-CEM leukemia = test system: CCRF-CEM leukemia
NCI-H23 lung = test system: NCI-H23 lung
HCT-116 colon = test system: HCT-116 colon
UACC-62 melanoma = test system: UACC-62 melanoma
DLD-1 colon = test system: DLD-1 colon
CAKI-1 renal = test system: CAKI-1 renal
HL-60(TB) leukemia = test system: HL-60(TB) leukemia
SK-MEL-28 melanoma = test system: SK-MEL-28 melanoma
RPMI-8226 leukemia = test system: RPMI-8226 leukemia
SNB-78 CNS = test system: SNB-78 CNS
A498 renal = test system: A498 renal
HCT-15 colon = test system: HCT-15 colon
SNB-19 CNS = test system: SNB-19 CNS
LOX IMVI melanoma = test system: LOX IMVI melanoma
IGROV1 ovarian = test system: IGROV1 ovarian
SF-295 CNS = test system: SF-295 CNS
K-562 leukemia = test system: K-562 leukemia
OVCAR-3 ovarian = test system: OVCAR-3 ovarian
OVCAR-8 ovarian = test system: OVCAR-8 ovarian
SF-268 CNS = test system: SF-268 CNS
TK-10 renal = test system: TK-10 renal
DMS 114 small cell lung = test system: DMS 114 small cell lung
KM12 colon = test system: KM12 colon
NCI-H460 lung = test system: NCI-H460 lung
HOP-62 NSCLC = test system: HOP-62 NSCLC
DMS 273 small cell lung = test system: DMS 273 small cell lung
SW-620 colon = test system: SW-620 colon
EKVX NSCLC = test system: EKVX NSCLC
COLO 205 colon = test system: COLO 205 colon
SK-MEL-2 melanoma = test system: SK-MEL-2 melanoma
NCI-H226 lung = test system: NCI-H226 lung
NCI-H522 lung = test system: NCI-H522 lung
MALME-3M melanoma = test system: MALME-3M melanoma
SK-MEL-5 melanoma = test system: SK-MEL-5 melanoma
M14 melanoma = test system: M14 melanoma
RXF 393 renal = test system: RXF 393 renal
LXFL 529 NSCLC = test system: LXFL 529 NSCLC
KM20L2 colon = test system: KM20L2 colon
M19-MEL melanoma = test system: M19-MEL melanoma
SN12C renal = test system: SN12C renal
SK-OV-3 ovarian = test system: SK-OV-3 ovarian
XF 498 CNS = test system: XF 498 CNS

Measured: TGI

O=[N+]([O-])CCc1cccc([N+](=O)[O-])c1
> 100 µM: U251 CNS | UO-31 renal | 786-0 renal | OVCAR-4 ovarian | HOP-18 NSCLC | UACC-257 melanoma | OVCAR-5 ovarian | SNB-75 CNS | HCC-2998 colon | SR leukemia | ACHN renal | A549 NSCLC | MOLT-4 leukemia | HT29 colon | SF-539 CNS | HOP-92 NSCLC | CCRF-CEM leukemia | NCI-H23 lung | HCT-116 colon | UACC-62 melanoma | DLD-1 colon | CAKI-1 renal | HL-60(TB) leukemia | SK-MEL-28 melanoma | RPMI-8226 leukemia | SNB-78 CNS | A498 renal | HCT-15 colon | SNB-19 CNS | LOX IMVI melanoma | IGROV1 ovarian | SF-295 CNS | K-562 leukemia | OVCAR-3 ovarian | OVCAR-8 ovarian | SF-268 CNS | TK-10 renal | DMS 114 small cell lung | KM12 colon | NCI-H460 lung | HOP-62 NSCLC | DMS 273 small cell lung | EKVX NSCLC | COLO 205 colon | SK-MEL-2 melanoma | NCI-H226 lung | NCI-H522 lung | MALME-3M melanoma | SK-MEL-5 melanoma | M14 melanoma | RXF 393 renal | LXFL 529 NSCLC | KM20L2 colon | M19-MEL melanoma | SN12C renal
22.7 µM: SW-620 colon

COC(=O)C1[C@H](c2cc(OC)c(OC)c(OC)c2)OC(=O)C1(C(=O)OC)C(=O)c1ccc2c(c1)OCO2 (some centres undefined)
> 100 µM: U251 CNS | UO-31 renal | 786-0 renal | OVCAR-4 ovarian | UACC-257 melanoma | OVCAR-5 ovarian | SNB-75 CNS | HCC-2998 colon | ACHN renal | A549 NSCLC | MOLT-4 leukemia | HT29 colon | SF-539 CNS | HOP-92 NSCLC | CCRF-CEM leukemia | NCI-H23 lung | HCT-116 colon | UACC-62 melanoma | DLD-1 colon | SK-OV-3 ovarian | CAKI-1 renal | HL-60(TB) leukemia | XF 498 CNS | SK-MEL-28 melanoma | RPMI-8226 leukemia | SNB-78 CNS | A498 renal | HCT-15 colon | SNB-19 CNS | LOX IMVI melanoma | IGROV1 ovarian | SF-295 CNS | K-562 leukemia | OVCAR-3 ovarian | OVCAR-8 ovarian | SF-268 CNS | TK-10 renal | DMS 114 small cell lung | KM12 colon | NCI-H460 lung | HOP-62 NSCLC | DMS 273 small cell lung | SW-620 colon | EKVX NSCLC | COLO 205 colon | NCI-H226 lung | NCI-H522 lung | MALME-3M melanoma | SK-MEL-5 melanoma | M14 melanoma | RXF 393 renal | LXFL 529 NSCLC | KM20L2 colon | M19-MEL melanoma | SN12C renal

Cc1c(C(=O)/C=C/c2ccccc2O)c(=O)n(-c2ccccc2)n1C
70.7 µM: MALME-3M melanoma
29.5 µM: HCC-2998 colon
28.6 µM: SK-MEL-5 melanoma
63.2 µM: MOLT-4 leukemia
50.8 µM: RXF 393 renal
45.9 µM: LOX IMVI melanoma
64.6 µM: HOP-92 NSCLC | NCI-H226 lung
47.5 µM: NCI-H522 lung
73.8 µM: CAKI-1 renal
86.9 µM: CCRF-CEM leukemia
90 µM: A498 renal
27.9 µM: DLD-1 colon
45.2 µM: ACHN renal
55.5 µM: SF-539 CNS
70.8 µM: COLO 205 colon
34.6 µM: HCT-116 colon
53.3 µM: NCI-H460 lung
38.4 µM: SK-MEL-2 melanoma
52.6 µM: SN12C renal
60.5 µM: HCT-15 colon
89.7 µM: UACC-257 melanoma
> 100 µM: OVCAR-5 ovarian | SNB-75 CNS | A549 NSCLC | HT29 colon | UACC-62 melanoma | SK-OV-3 ovarian | SK-MEL-28 melanoma | SNB-78 CNS | SNB-19 CNS | IGROV1 ovarian | OVCAR-3 ovarian | SF-268 CNS | TK-10 renal | DMS 114 small cell lung | DMS 273 small cell lung | EKVX NSCLC | KM20L2 colon
46.3 µM: XF 498 CNS
40.7 µM: OVCAR-8 ovarian
70 µM: 786-0 renal
35.9 µM: U251 CNS
37.5 µM: LXFL 529 NSCLC
35.5 µM: SW-620 colon
54.9 µM: SF-295 CNS
74.6 µM: M19-MEL melanoma

CC(C)(C)C(=O)OCC1CCC(n2cnc3c(=O)[nH]c(N)nc32)O1 (centres undefined)
> 100 µM: U251 CNS | UO-31 renal | 786-0 renal | OVCAR-4 ovarian | HOP-18 NSCLC | UACC-257 melanoma | OVCAR-5 ovarian | SNB-75 CNS | HCC-2998 colon | ACHN renal | A549 NSCLC | HT29 colon | SF-539 CNS | HOP-92 NSCLC | CCRF-CEM leukemia | NCI-H23 lung | HCT-116 colon | UACC-62 melanoma | SK-OV-3 ovarian | CAKI-1 renal | XF 498 CNS | SK-MEL-28 melanoma | RPMI-8226 leukemia | SNB-78 CNS | A498 renal | HCT-15 colon | SNB-19 CNS | LOX IMVI melanoma | IGROV1 ovarian | SF-295 CNS | K-562 leukemia | OVCAR-3 ovarian | OVCAR-8 ovarian | SF-268 CNS | TK-10 renal | DMS 114 small cell lung | KM12 colon | NCI-H460 lung | HOP-62 NSCLC | DMS 273 small cell lung | SW-620 colon | EKVX NSCLC | COLO 205 colon | SK-MEL-2 melanoma | NCI-H226 lung | MALME-3M melanoma | SK-MEL-5 melanoma | M14 melanoma | KM20L2 colon | M19-MEL melanoma | SN12C renal
